This note sets out measurements from ChEMBL document CHEMBL1201862, “PubChem BioAssay data set” (2004).

For orientation: AC50 means the concentration at which the activity in the assay is half-maximal. By EC50 is commonly meant the concentration needed to bring the measured effect to its halfway point. As usually defined, the IC50 is the concentration needed to halve the response being measured.

In one data set the target is Cytochrome P450 3A4 (Homo sapiens, UniProt P08684).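 Note: CYP3A4 tested as one member of a cytochrome P450 panel screen.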
For data set [1], the target named is T1, Cytochrome P450 2C9 (Homo sapiens, UniProt P11712).
The next data set deals with T2, Cytochrome P450 1A2 (Homo sapiens, UniProt P05177).
T2 sequence (P05177 whole entry): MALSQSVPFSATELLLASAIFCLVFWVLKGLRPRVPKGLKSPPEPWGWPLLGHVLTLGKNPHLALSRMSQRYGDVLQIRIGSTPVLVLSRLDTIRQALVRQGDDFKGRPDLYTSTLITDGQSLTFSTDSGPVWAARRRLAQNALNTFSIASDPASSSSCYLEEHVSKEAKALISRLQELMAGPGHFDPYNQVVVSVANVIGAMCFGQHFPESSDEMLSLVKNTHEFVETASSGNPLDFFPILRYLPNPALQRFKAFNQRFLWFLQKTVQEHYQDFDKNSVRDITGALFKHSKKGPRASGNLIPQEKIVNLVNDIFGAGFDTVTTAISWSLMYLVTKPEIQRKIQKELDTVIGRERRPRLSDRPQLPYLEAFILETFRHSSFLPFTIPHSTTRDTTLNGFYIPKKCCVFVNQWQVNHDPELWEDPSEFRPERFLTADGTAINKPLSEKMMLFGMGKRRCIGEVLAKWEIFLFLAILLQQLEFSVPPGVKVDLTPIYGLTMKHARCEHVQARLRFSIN

Data set [2] addresses Peroxisome proliferator-activated receptor gamma/Nuclear receptor coactivator 2 (Homo sapiens, UniProt P37231). As to the kind of experiment: TR-FRET dose response biochemical High Throughput Screening assay for agonists of the steroid receptor coactivator 2 (SRC-2) recruitment by the peroxisome proliferator-activated receptor gamma (PPAR gamma): non-selective agonists. [Related pubchem assays: 1297, 1032 ]. The data set is classed as functional.

For data set [3], the target named is Peroxisome proliferator-activated receptor gamma/Nuclear receptor coactivator 3 (Homo sapiens, UniProt P37231). As to the kind of experiment: TR-FRET dose response biochemical High Throughput Screening assay for agonists of the steroid receptor coactivator 3 (SRC-3) recruitment by the peroxisome proliferator-activated receptor gamma (PPAR gamma): non-selective agonists. [Related pubchem assays: 1301 (Confirmation screen.), 1048 (Primary screen.)]. The data set is classed as functional. (In general: TR-FRET usually uses a lanthanide donor and a delayed reading to cut background.)

In data set [4] the target is Peroxisome proliferator-activated receptor gamma/Nuclear receptor coactivator 1 (Homo sapiens, UniProt P37231). As to the kind of experiment: TR-FRET dose response biochemical High Throughput Screening assay for agonists of the steroid receptor coactivator 1 (SRC-1) recruitment by the peroxisome proliferator-activated receptor gamma (PPAR gamma): non-selective agonists. [Related pubchem assays (depositor defined):AID1300, AID1808, AID504735, AID631]. The class given is protein assay.

The target of a further data set is Beta-galactosidase (Escherichia coli, UniProt Q8VNN2). As to the kind of experiment: detection-enzyme interference by beta-gal modulators – biochemical, E. coli enzyme, set 3, artefact control for CCR6 antagonist project, dose response (AID 504712). The data set is classed as functional.
Data set [5] in a line: NIH-3T3 fibroblast cytotoxicity, dose response, cytotoxicity control, cell-based, fluorescence, Alamar Blue, secondary assay (AID 2327).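 Note: NIH-3T3 mouse fibroblasts cultured with fluconazole at 8 µg/mL.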 The class given is functional. A general note: Resazurin is reduced to fluorescent resorufin, in cell work by metabolically active cells.
Data set [6] is described as follows: fluconazole-exposed Candida albicans growth modulators – fluorescence, retest, confirmation (AID 2467). The data set is classed as functional, cell-based.
Data set [7] deals with T1, Cytochrome P450 2C9. This is another data set of the same source.
For data set [8], the target named is FAD-linked sulfhydryl oxidase ALR (Homo sapiens, UniProt P55789). As to the kind of experiment: ALR-catalysed DTT oxidation blockers – biochemical, H2O2 detection, luminescence, cherry-pick, dose response (AID 493248).
The target in data set [9] is T3, Rac GTPase-activating protein 1 (Homo sapiens, UniProt Q9H0H5).
T3 sequence (Q9H0H5 whole entry): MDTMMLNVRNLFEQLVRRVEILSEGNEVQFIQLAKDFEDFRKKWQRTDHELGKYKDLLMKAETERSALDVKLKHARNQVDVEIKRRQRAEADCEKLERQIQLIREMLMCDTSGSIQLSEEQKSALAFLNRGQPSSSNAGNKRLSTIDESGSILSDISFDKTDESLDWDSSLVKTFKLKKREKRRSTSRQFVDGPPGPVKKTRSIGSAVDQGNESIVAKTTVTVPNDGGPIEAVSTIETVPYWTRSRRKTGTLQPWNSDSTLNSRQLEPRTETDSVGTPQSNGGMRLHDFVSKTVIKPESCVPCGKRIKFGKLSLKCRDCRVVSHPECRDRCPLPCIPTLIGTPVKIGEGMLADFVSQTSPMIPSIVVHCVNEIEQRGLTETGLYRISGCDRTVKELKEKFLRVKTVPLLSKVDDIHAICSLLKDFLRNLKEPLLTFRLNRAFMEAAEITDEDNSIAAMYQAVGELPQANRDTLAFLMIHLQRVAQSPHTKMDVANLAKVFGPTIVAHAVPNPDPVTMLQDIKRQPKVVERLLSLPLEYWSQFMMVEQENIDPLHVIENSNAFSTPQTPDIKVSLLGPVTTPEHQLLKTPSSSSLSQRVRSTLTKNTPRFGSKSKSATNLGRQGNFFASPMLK
Put plainly: blockers of MgcRacGAP-driven Rac1 GTP hydrolysis – biochemical, ADP Hunter fluorescence, primary and confirmatory, confirmation (AID 624330). The data set is classed as functional.

For a further data set, the target named is Large T antigen (Simian virus 40, UniProt P03070). The data set is classed as functional, Betapolyomavirus macacae.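 Note: Confirmatory-stage PubChem screen for compounds that inhibit SV40 T antigen.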
The next data set deals with Cytochrome P450 2C19 (Homo sapiens, UniProt P33261). As to the kind of experiment: Cytochrome panel assay with activity outcomes. Panel member name: p450-cyp2c19 Compounds with AC50 equal or less than 10 uM are considered active. The data set is classed as functional. To be noted: read-out: AC50.
In a further data set the test system is Streptococcus. As to the kind of experiment: GAS UMAA2166 growth inhibition – luminescence, BacTiterGlo, counter-screen for streptokinase expression inhibitor project, dose response (AID 1915).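 Note: potency for reduction of bacterial viability or growth.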 The data set is classed as functional, organism-based. A general note: Counterscreens check selectivity or assay interference.
For the next data set, the target named is T4, Streptokinase A (Streptococcus pyogenes serotype M1, UniProt P10520).
T4 sequence (P10520 whole entry): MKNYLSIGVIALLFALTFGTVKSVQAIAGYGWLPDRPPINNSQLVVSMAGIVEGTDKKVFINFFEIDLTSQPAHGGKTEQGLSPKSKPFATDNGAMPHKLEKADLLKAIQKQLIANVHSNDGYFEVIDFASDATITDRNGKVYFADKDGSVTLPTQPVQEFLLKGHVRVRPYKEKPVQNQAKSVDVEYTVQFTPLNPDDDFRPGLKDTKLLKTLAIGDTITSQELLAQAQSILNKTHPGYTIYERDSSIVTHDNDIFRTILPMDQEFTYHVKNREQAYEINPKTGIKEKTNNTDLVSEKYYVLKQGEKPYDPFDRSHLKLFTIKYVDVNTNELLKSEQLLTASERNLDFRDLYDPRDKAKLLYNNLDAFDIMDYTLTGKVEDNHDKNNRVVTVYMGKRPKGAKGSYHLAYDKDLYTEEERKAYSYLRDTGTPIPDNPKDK
Put plainly: viability-normalized secreted streptokinase activity reduction – plasminogen activation absorbance, OD405, dose response (AID 1914).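 Note: secreted streptokinase activity via plasminogen activation per viability signal from cell pellet.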 The data set is classed as functional, Streptococcus pyogenes M1 GAS.

Another data set addresses Cytochrome P450 2D6 (Homo sapiens, UniProt P10635).
Data set [10] has as its system Streptococcus sp. 'group A'. Put plainly: Streptococcus pyogenes SK(-)GAS viability under kanamycin – luminescence, BacTiterGlo, confirmation, counter-screen for streptokinase expression inhibitor project, dose response (AID 1900). The class given is functional, organism-based.

Calls of active or inactive are those of the source.

Chain of Cytochrome P450 3A4 (P08684 whole entry): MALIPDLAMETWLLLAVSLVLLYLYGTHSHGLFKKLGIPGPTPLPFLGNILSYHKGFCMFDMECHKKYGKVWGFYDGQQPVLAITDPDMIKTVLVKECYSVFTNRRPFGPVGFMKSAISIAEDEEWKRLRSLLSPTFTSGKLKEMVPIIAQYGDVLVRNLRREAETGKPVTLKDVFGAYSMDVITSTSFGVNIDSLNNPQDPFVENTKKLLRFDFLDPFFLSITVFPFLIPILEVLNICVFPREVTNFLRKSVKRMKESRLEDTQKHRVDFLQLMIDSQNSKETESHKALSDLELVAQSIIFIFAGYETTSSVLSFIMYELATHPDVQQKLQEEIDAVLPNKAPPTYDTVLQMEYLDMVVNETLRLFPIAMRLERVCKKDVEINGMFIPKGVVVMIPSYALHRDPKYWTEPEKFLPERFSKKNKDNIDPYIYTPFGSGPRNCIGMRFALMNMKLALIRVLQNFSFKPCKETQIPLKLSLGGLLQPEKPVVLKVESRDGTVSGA
Chain of Peroxisome proliferator-activated receptor gamma/Nuclear receptor coactivator 1 (P37231 whole entry): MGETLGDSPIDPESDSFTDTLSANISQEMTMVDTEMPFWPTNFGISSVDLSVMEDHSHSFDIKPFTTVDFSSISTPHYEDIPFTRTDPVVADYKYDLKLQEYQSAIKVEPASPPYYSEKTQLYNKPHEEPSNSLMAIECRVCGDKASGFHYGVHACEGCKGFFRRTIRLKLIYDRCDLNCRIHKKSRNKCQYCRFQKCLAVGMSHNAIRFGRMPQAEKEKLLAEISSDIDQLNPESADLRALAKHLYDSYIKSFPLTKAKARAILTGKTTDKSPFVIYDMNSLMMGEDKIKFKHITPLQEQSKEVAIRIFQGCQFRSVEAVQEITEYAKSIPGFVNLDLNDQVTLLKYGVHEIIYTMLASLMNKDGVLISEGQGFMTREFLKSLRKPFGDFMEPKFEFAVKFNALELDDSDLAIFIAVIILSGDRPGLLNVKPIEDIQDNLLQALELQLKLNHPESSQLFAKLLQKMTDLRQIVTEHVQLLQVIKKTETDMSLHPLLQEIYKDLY
Chain of Peroxisome proliferator-activated receptor gamma/Nuclear receptor coactivator 1 (Q15788 whole entry, further chain): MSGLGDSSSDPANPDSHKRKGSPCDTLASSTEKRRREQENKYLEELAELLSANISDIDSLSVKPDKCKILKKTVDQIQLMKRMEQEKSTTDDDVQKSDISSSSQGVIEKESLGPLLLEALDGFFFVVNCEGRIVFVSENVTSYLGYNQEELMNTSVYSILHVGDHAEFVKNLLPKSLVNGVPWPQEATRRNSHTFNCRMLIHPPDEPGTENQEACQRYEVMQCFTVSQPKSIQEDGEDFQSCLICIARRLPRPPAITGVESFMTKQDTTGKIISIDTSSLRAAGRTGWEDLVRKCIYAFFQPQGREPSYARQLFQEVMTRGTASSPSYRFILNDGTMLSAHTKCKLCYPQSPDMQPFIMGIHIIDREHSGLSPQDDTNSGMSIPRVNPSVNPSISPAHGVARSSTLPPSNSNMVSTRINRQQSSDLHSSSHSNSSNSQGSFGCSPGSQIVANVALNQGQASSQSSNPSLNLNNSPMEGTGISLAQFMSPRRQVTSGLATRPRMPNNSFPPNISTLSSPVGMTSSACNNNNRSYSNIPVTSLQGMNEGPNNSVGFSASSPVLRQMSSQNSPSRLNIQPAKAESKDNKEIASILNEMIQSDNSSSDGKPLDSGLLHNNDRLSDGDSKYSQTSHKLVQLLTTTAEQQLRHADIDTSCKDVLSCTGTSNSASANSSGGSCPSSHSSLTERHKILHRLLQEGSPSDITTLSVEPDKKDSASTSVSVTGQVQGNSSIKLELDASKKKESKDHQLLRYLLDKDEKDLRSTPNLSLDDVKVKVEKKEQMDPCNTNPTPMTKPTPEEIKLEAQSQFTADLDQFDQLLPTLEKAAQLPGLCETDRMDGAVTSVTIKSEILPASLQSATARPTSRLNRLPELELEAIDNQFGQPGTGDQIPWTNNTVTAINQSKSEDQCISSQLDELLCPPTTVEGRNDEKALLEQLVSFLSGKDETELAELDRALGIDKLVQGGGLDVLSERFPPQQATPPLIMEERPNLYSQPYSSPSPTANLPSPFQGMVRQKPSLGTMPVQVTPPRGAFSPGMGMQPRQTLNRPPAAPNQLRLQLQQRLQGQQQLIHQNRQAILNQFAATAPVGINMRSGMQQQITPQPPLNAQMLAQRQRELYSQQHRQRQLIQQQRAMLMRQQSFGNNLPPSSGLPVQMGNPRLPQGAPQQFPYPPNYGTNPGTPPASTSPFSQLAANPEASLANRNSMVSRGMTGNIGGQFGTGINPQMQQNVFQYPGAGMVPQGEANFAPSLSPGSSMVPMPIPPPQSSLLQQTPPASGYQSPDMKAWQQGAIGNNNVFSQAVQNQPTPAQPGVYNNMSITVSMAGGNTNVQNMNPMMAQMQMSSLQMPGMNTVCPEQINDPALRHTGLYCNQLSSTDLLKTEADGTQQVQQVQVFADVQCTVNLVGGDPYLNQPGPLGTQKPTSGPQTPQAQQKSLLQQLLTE
Chain of Peroxisome proliferator-activated receptor gamma/Nuclear receptor coactivator 3 (P37231 whole entry): as the sequence (P37231 whole entry) above
Chain of Peroxisome proliferator-activated receptor gamma/Nuclear receptor coactivator 3 (Q9Y6Q9 whole entry, further chain): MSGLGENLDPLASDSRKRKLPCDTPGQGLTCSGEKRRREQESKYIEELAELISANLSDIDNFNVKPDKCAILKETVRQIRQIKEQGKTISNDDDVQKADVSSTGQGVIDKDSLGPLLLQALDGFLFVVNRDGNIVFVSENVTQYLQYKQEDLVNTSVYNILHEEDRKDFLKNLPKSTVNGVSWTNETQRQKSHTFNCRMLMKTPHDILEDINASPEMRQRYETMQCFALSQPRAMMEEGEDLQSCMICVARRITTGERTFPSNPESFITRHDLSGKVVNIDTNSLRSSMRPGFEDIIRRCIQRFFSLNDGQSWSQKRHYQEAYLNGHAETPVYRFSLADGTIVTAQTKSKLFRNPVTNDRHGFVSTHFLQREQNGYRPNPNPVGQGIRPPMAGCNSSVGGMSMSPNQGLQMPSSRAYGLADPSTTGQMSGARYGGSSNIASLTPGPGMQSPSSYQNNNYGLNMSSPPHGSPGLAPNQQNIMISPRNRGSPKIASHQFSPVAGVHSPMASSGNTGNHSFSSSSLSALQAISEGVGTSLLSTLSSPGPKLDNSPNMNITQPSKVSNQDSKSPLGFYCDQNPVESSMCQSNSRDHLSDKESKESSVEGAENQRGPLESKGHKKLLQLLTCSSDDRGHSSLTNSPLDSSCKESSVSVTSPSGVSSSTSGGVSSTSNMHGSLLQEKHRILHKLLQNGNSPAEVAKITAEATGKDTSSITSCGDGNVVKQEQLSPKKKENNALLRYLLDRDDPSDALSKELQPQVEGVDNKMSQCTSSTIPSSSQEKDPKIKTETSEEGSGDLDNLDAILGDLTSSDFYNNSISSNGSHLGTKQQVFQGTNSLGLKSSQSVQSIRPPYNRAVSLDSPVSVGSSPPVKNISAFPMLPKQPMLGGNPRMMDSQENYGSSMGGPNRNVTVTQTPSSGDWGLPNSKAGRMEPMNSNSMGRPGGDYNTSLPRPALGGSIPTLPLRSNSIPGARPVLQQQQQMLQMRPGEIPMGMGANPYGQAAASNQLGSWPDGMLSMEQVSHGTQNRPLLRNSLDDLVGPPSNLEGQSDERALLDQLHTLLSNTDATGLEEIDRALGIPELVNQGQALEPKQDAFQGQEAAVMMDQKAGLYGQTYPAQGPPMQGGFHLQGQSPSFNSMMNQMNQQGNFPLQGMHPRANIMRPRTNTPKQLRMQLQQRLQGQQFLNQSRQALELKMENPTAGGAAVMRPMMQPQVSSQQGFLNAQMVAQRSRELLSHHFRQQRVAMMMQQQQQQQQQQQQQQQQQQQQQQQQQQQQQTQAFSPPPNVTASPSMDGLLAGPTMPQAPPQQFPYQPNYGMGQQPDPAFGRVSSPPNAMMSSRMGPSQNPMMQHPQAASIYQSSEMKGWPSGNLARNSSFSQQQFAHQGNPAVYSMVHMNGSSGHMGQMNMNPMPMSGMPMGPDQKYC
T1 sequence (P11712 whole entry): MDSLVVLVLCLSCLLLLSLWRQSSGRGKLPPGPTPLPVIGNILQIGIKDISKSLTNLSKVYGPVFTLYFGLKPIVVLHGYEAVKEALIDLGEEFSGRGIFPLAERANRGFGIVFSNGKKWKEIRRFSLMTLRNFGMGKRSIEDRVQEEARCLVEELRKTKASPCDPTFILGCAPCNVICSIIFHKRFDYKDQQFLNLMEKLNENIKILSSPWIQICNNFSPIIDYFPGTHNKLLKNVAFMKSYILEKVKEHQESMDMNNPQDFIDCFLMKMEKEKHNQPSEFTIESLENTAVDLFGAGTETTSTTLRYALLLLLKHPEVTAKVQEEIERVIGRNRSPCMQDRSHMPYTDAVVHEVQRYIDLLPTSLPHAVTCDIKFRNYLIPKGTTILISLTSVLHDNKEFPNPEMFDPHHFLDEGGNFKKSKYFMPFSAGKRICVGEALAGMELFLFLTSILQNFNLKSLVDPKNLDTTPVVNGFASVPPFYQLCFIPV
Chain of FAD-linked sulfhydryl oxidase ALR (P55789 whole entry): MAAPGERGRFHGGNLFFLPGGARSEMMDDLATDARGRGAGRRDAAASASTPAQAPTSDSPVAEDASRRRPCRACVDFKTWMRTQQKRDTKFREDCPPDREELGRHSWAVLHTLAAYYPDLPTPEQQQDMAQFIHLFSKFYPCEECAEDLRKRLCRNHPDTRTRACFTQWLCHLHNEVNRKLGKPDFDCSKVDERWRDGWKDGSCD

As for `O=C(c1cccc(F)c1)N1CCC2(CC1)CCN(C(c1ccccc1)c1ccccc1)CC2`, the AC50 entry on Cytochrome P450 3A4 was “inconclusive”; at Cytochrome P450 2C9 [1], 39.8 µM (inconclusive); on Cytochrome P450 1A2, 10 µM (inconclusive).

Consider `CSc1cnn(-c2ccccc2)c(=O)c1SC`, for which the EC50 in data set [2] was 1.75 µM (active); in data set [3] it was > 79.4 µM (not active); in data set [4] it was 1.97 µM (active).

In the case of `CCOc1cccc(C(=O)NC(=S)Nc2cccc(C)c2)c1`, on Beta-galactosidase, the IC50 was > 66.6 µM (inactive).

In the case of `Cn1c(=O)n(CC#N)c2ccccc21`, the half-maximal effective concentration (EC50) was > 160 µM (inconclusive) in [5] and 4.1 µM (active) in [6]. The AC50 at Cytochrome P450 1A2 was 12.6 µM (inconclusive); at Cytochrome P450 2C9 [7], “inconclusive”.

In the case of `CCN(CCCNC(=O)CC(C(=O)N1CCc2ccccc21)n1ccnc1)c1ccccc1` (centres undefined), the AC50 entry at Cytochrome P450 2C9 [7] is given as “inconclusive”.

Consider `CN(CCCNC(=O)CSc1cc(=O)n(C)c2cc(Cl)ccc12)Cc1ccccc1`, for which the figures for the EC50 in [2], in data set [3] and in [4] were > 79.4 µM (not active), > 79.4 µM (not active) and > 79.4 µM (inactive), respectively.

As to `O=C1CS/C(=N\c2ccc(O)cc2)N1c1ccc(O)cc1`, the AC50 in data set [8] is 3.26 µM (active). Further, the IC50 is 51.9 µM (active) in data set [9] and 11.4 µM (active) on Large T antigen.

On to `O=C(NCc1ccc(Cl)cc1)c1ccc(Cl)cc1[N+](=O)[O-]`, for which the AC50 is 2.82 µM (inconclusive) at Cytochrome P450 1A2 and “inconclusive” at Cytochrome P450 2C9 [7].

On to `O=c1c(-c2ccccc2)nc2cnc(Oc3ccccc3)nc2n1C1CC1`, for which the AC50 result at Cytochrome P450 3A4 is “inconclusive”; at Cytochrome P450 2C19 it was 25.1 µM (inconclusive).

Regarding `CCCCN(CC)C(=O)CSc1cc(=O)n(C)c2ccccc12`, the EC50 in data set [2] is > 79.4 µM (not active); in data set [3] it was > 79.4 µM (not active); in data set [4] it was > 79.4 µM (inactive).

`COc1ccc(N2CCN(CCNC(=O)C3CCN(S(=O)(=O)c4cccs4)CC3)CC2)cc1`: the AC50 result at Cytochrome P450 3A4 is “inconclusive”; on Cytochrome P450 2C9 [1] it was 20 µM (inconclusive); on Cytochrome P450 2C19, 28.2 µM (inconclusive).

`COc1ccc2c(c1OC)C(=O)N(c1ccc(O)cc1)C2`: the IC50 on Large T antigen was > 100 µM (active).

Turning to `Cc1nn(-c2ccccc2)c(C)c1/C=N/NC(=O)c1cc(-c2ccc(Cl)s2)[nH]n1`, the AC50 entry was “inconclusive” at Cytochrome P450 3A4 and 25.1 µM (inconclusive) at Cytochrome P450 2D6. Also, the EC50 is 9.32 µM (active) with Streptococcus, > 150 µM (not active) on Streptokinase A and 10.8 µM (active) in data set [10].
